Assay results published in PMC10532587, “An Investigation of Structure–Activity Relationships and Cell Death Mechanisms of the Marine Alkaloids Discorhabdins in Merkel Cell Carcinoma Cells” (Marine Drugs, 2023).
Where two headings read alike, the source gives them in different places.

Tests used:
HaCaT = assay: Cell survival by CellTiterGlo, control cells; format: cell-based, human; conditions: for IC50: Homo sapiens, HaCaT; for AUC (arbitrary units) HaCaT: area under the dose-response curve, control cells
MCC13 = assay: Cell survival by CellTiterGlo, VN-MCC line MCC13; format: cell-based; conditions: for IC50: CellTiterGlo, normalized to DMSO; for AUC (arbitrary units) MCC13: area under the dose-response curve
MCC26 = assay: Cell survival by CellTiterGlo, VN-MCC line MCC26; format: cell-based; conditions: for IC50: CellTiterGlo, normalized to DMSO; for AUC (arbitrary units) MCC26: area under the dose-response curve
UISO = assay: Cell survival by CellTiterGlo, VN-MCC line UISO; format: cell-based; conditions: for IC50: CellTiterGlo, normalized to DMSO; for AUC (arbitrary units) UISO: area under the dose-response curve
MKL-1 = assay: Cell survival by CellTiterGlo, VP-MCC line MKL-1; format: cell-based; conditions: VP-MCC; for IC50: MKL-1, CellTiterGlo, normalized to DMSO, read-out: IC50 (nM) MKL-1; for AUC (arbitrary units) MKL-1: area under the dose-response curve
MKL-2 = assay: Cell survival by CellTiterGlo, VP-MCC line MKL-2; format: cell-based; conditions: for IC50: CellTiterGlo, normalized to DMSO; for AUC (arbitrary units) MKL-2: area under the dose-response curve
Waga = assay: Cell survival by CellTiterGlo, VP-MCC line Waga; format: cell-based; conditions: for IC50: CellTiterGlo, normalized to DMSO; for AUC (arbitrary units) WaGa: area under the dose-response curve
[1] = test system: control (HaCaT) and Merkel cell carcinoma cell lines; assay: Cell survival by CellTiterGlo, all seven cell lines; format: cell-based; conditions: MCC and control cell lines
Experimental: (§1) Three methods were employed for assessment of MCC and control cell survival/viability after discorhabdin treatment, two metabolic assays and a cell permeability assay. For all three methods, cells were plated in 384-well plates at 2500 cells/well and treated with various concentrations of discorhabdins for various time periods. CellTiterGlo^TM (Promega, Madison, WI, USA) measures cellular ATP content and was used to estimate potency of discorhabdins in cell viability assays as previously described. Continuous monitoring of metabolic activity was accomplished using a cellular reducing potential luminescence assay, the RealTime-Glo^TM MT Cell Viability Assay (Promega, Madison, WI, USA) according to manufacturer’s instructions. Loss of cell plasma membrane integrity was assessed using a cell-impermeant molecule that becomes fluorescent upon binding DNA [82] in parallel with apoptosis detection per manufacturer’s instructions (RealTimeGlo^TM Annexin V Apoptosis and Necrosis Assay-Promega). Two additional assays of apoptotic cell death were also used. Caspase activation in response to treatment of MCC cells by discorhabdins or bortezomib (as a positive control) was measured using the CaspaseGlo® 3/7 Assay (Promega, Madison, WI, USA) according to the manufacturer’s instructions at multiple time points. Inhibition of apoptotic cell death was investigated using pre-treatment of cells with for 1 h with the pan-caspase inhibitor Z-VAD-FMK (Enzo Life Sciences, Farmingdale, NY, USA) followed by treatment with discorhabdins or bortezomib and estimation of cell viability as outlined above.
(§2) In order to compare responses among all of the discorhabdins and cell lines (98 combinations), dose–response curves were generated using identical discorhabdin dilution series. GraphPad Prism 8 (San Diego, CA, USA) software was utilized to graph dose–response data and to calculate IC50 values and area under the dose–response curves (AUC) along with 95% confidence interval estimates using four-parameter logistic nonlinear regression analysis. For further analysis and comparisons, AUC for each cell line/discorhabdin pair was visualized in a heatmap generated in R version 1.3.1073 (R Core Team (2013). R: A language and environment for statistical computing. R Foundation for Statistical Computing, Vienna, Austria, http://www.R-project.org/ (accessed on 12 January 2023).
Figure S39: Activity of discorhabdins against M CC cell lines.
The indicated discorh abd ins were ass essed for th eir ability to affect surviv al of control (H aCaT) and Merkel cell carcino ma cell lines (VN-MCC: MCC13, MCC26, UISO and VP -MCC: MKL-1, MKL-2, Wag a). Cells were plat ed at 2500 cells/well and compounds the next day. Cell survival was estimated by CellTiterGlo (normalized to untreated (DMSO) cells on the same plate). Structures w ere o btained from the supplier and/or the PubChem database or as described in the text. Number in bold in ( ) refers to structures in Figure 1 in the text. Curves were plotted and IC50 values and 95% confidence interval calculated by GraphPad software. […]

MCC cell lines = assay: Cell survival by CellTiterGlo, MCC cell lines together; format: cell-based; conditions: for averaged potency (IC50) across all MCC cell lines tested: average over MCC cell lines
Experimental: as §1, §2

[2] = test system: VP-MCC cell lines (MKL-1, MKL-2, and Waga); assay: Selectivity VP-MCC versus control cells (average AUC); format: cell-based
From the text: as §2
Figure S41: Discorhabdi nselectivity
Discorhabdin selectivity for VP -MCC and VN- MCCcells was estimated by comparison of activity (average AUC) for each dis corhabdin against VP -MCC (panel A) or VN- MCC (panel B) cell lines compared to control cells . Discorhabdins were sort ed by selectivity from most to least selective. - fold dif fer ence = (av e VN -MCC or VP -MCC AUC/ control AUC). Error bars […]
(1 picture or pasted object on this page, not shown here)

caspase-3/7 [3] = assay: Caspase-3/7 activation (CaspaseGlo 3/7) in UISO cells; format: cell-based; conditions: 8 or 24 h; normalized to DMSO control
Experimental: (§3) (a) Caspase activation. Cells were treated for 8 or 24 h with indicated discorhabdins or bortezomib. Caspase-3/7 activity was determined (Promega CaspaseGLO-3/7) and normalized to untreated (DMSO) control cells. Error bars represent sd (n = 4). (b). Apoptosis/necrosis. Cells were treated for up to 24 h with the indicated discorhabdins and assessed for Annexin binding and cell permeability using the Promega RealTime-Glo™ Annexin V Apoptosis and Necrosis Assay kit. Luminescence indicates Annexin binding, fluorescence indicates membrane permeability.
as §1, with “Inhibition of apoptotic cell death was investigated using pre-treatment of cells with for 1 h with the pan-caspase inhibitor Z-VAD-FMK (Enzo Life Sciences, Farmingdale, NY, USA) followed by treatment with discorhabdins or bortezomib and estimation of cell viability as outlined above.” left out

caspase-3/7 [4] = assay: Caspase-3/7 activation (CaspaseGlo 3/7) in MKL-1 cells; format: cell-based; conditions: 8 or 24 h; normalized to DMSO control
Experimental: as §3
as §1, with “Inhibition of apoptotic cell death was investigated using pre-treatment of cells with for 1 h with the pan-caspase inhibitor Z-VAD-FMK (Enzo Life Sciences, Farmingdale, NY, USA) followed by treatment with discorhabdins or bortezomib and estimation of cell viability as outlined above.” left out

UISO cells = assay: Mitochondrial membrane potential (JC-10) in UISO cells; format: cell-based; conditions: 10 µM, normalized to DMSO control
Experimental: (§4) Cells were treated with the indicated discorhabdins (10 µM) and assessed for mitochondrial membrane potential (MMP) using JC-10 ratiometric dye. JC-10 was added for the last hour of incubation. Cellular reducing potential was assessed using a RealTimeGlo MT Cell Viability kit, and cellular ATP levels using CellTiterGlo. All values were normalized to DMSO control. Error bars (n = 3–4) represent sd. See Figures S45 and S46 for additional cell line/discorhabdin combinations, concentrations, and time points for reducing potential and MMP, respectively.
(§5) Mitochondrial membrane potential (MMP) was assessed using the JC-10 ratiometric dye (Sigma, St. Louis, MO, USA). UISO or MKL-1 cells were treated in black-walled, clear-bottom 384-well plates (Corning Life Sciences, Durham, NC, USA) with discorhabdins or doxorubicin (Sigma, St. Louis, MO, USA) as a positive control for up to 24 h with JC-10 for the last 1 h of incubation. Red/green fluorescence signals were measured, the red/green ratio for each well was calculated and normalized to untreated (DMSO) control wells for the same cell line and incubation time to determine relative MMP.

MKL-1 cells = assay: Mitochondrial membrane potential (JC-10) in MKL-1 cells; format: cell-based; conditions: 10 µM, normalized to DMSO control
Experimental: as §4, §5

MCC cells [5] = assay: Cellular reducing potential (RealTime-Glo MT Cell Viability); format: cell-based; conditions: 10 µM; normalized to DMSO control
Experimental: as §4
(§6) Three methods were employed for assessment of MCC and control cell survival/viability after discorhabdin treatment, two metabolic assays and a cell permeability assay. For all three methods, cells were plated in 384-well plates at 2500 cells/well and treated with various concentrations of discorhabdins for various time periods. […] Continuous monitoring of metabolic activity was accomplished using a cellular reducing potential luminescence assay, the RealTime-Glo^TM MT Cell Viability Assay (Promega, Madison, WI, USA) according to manufacturer’s instructions. Loss of cell plasma membrane integrity was assessed using a cell-impermeant molecule that becomes fluorescent upon binding DNA [82] in parallel with apoptosis detection per manufacturer’s instructions (RealTimeGlo^TM Annexin V Apoptosis and Necrosis Assay-Promega). […]

MCC cells [6] = assay: Cellular ATP content (CellTiterGlo), time course; format: cell-based; conditions: 10 µM, normalized to DMSO control
Experimental: as §4, §6

[7] = prostate cancer xenograft model; cited from earlier work
[8] = control skin cell line, CellTiterGlo, normalized to DMSO, read-out: IC50 (nM) HaCaT

Row | SMILES | IC50 (HaCaT; [8]) [nM] | AUC (arbitrary units) HaCaT (HaCaT) [arbitrary units] | IC50 (MCC13) [nM] | AUC (arbitrary units) MCC13 (MCC13) [arbitrary units] | IC50 (MCC26) [nM] | AUC (arbitrary units) MCC26 (MCC26) [arbitrary units] | IC50 (UISO) [nM] | AUC (arbitrary units) UISO (UISO) [arbitrary units] | IC50 (MKL-1) [nM] | AUC (arbitrary units) MKL-1 (MKL-1) [arbitrary units] | IC50 (MKL-2) [nM] | AUC (arbitrary units) MKL-2 (MKL-2) [arbitrary units] | IC50 (Waga) [nM] | AUC (arbitrary units) WaGa (Waga) [arbitrary units] | averaged potency (IC50) across all MCC cell lines tested (MCC cell lines) | caspase-3/7 activation, UISO (caspase-3/7 [3]) | caspase-3/7 activation, MKL-1 (caspase-3/7 [4]) | mitochondrial membrane potential (MMP), UISO (UISO cells) | mitochondrial membrane potential (MMP), MKL-1 (MKL-1 cells) | cellular reducing potential (MCC cells [5]) | also measured
1 | O=C1C=C2S[C@H]3C[C@]2(C=C1Br)C1=C(N3)C(=O)c2[nH]cc3c2C1=NCC3 [Compound 2, (+)-(6S,8S) discorhabdin B] | 1040 | 133.9 | 426 | 51.68 | 731 | 83.94 | 331 | 39.51 | 25 | 3.635 | 90 | 14.49 | 75 | 9.624 | sub-micromolar | lack of caspase-3/7 activation | lack of caspase-3/7 activation | significantly reduced | significantly reduced | dropped significantly | IC50 (HaCaT; read-out: IC50 for control cells): ≤ 1000 nM; activity on cell viability, in words [1]: comparable activity against MCC and control cell lines; fold more active than discorhabdin Q (3) against MCC cells (MCC cell lines; comparator discorhabdin Q (3)): > 10 fold; fold more active against MCC cells compared to 3 (MCC cell lines; comparator printed as 3, sentence is about discorhabdin G*/I (4)): 3 fold; increased activity against VP-MCC compared to the control [2]: > 10 fold; cellular ATP content (MCC cells [6]): loss of cellular ATP content was dramatic and rapid
2 | O=C1C2=C3C4=[N+](CCc5c[nH]c1c54)[C@@H]1C(=O)C=C4S[C@@H](C[C@@]43[C@H]1O)N2 [Compound 12, (−)-(1R,2S,6R,8S) discorhabdin L] | 2550 | 290.4 | 466 | 93.66 | 1130 | 140.6 | 660 | 103 | 83 | 13.23 | 245 | 50.71 | 440 | 55.36 | sub-micromolar | lack of caspase-3/7 activation | lack of caspase-3/7 activation | significantly reduced | significantly reduced | dropped significantly | cellular ATP content (MCC cells [6]): loss of cellular ATP content was dramatic and rapid; in vivo toxicity in animals [7]: minimal in vivo toxicity
